According to US10870639B2, “Pyrimidine compounds and pharmaceutical compositions for preventing or treating cancers including the same” (HANMI PHARM. CO., LTD., priority 2018, dated 2020):

Columns and labels:
[1] = system: MOLM-13; assay: Cell growth inhibition (MTS), MOLM-13; assay type: cell-based; settings: Homo sapiens, MOLM-13, 72 h, incubation three days
Method: (§1) The human acute myelogenous leukemia […] cell line MOLM-13 (DSMZ no. ACC 554) was incubated in RPM11640 medium supplemented with 20% heat-inactivated FBS at a temperature of 37° C. The incubated cell line was prepared in an amount of 2.0×10^4 cells/100 μL, and then plated on a 96-well plate. The RPMI1640 medium was serially diluted with the test compounds at a concentration in a range of 1 μM to 0.01 nM at a ratio of 1:10. Subsequently, incubation was performed thereon for three days. For the human acute myelogenous leukemia cell line MV-4-11 cell line (ATCC® CRL-9591™), the cells were incubated at a temperature of 37° C. in IMDM medium supplemented with 10% FBS. The incubated cell line was prepared in an amount of 2×10^4 cells/100 μL, and then plated on a 96-well plate. The IMDM medium was treated with cascade dilution of three test compounds at a concentration in a range of 1 μM to 0.01 nM at a rate of 1/10. Subsequently, incubation was performed thereon for three days. MTS test was performed to measure cell viability, and the growth inhibition (GI50) value of the cell line was calculated using GraphPad Prism software.

[2] = Pharmacokinetic profile in mice (p.o. and i.v.); assay type: in vivo; set-up: AUC: concentration or dose not given beside the values; settings: mouse, plasma; for AUC: LC-MS/MS, non-compartment analysis, read-out: Area under the curve (AUC) of mice; for bioavailability: po, BA=(AUC p.o./AUC i.v.)×(Dose i.v./Dose p.o.)×100
Method: After test substances were formulated by using the selected solvents, they were administered orally (p.o.) and intravenously (iv) once for each and a certain amount of blood was taken at a predetermined time, and plasma was isolated from the blood and a concentration analysis was performed thereon by LC-MS/MS. The AUC (drug concentration and an area under the curve) was calculated according to the linear-log trapezoidal summation formula by using the non-compartment analysis of the WinNonlin program through the plasma concentration curves over time. The bioavailability (BA) was calculated by applying the calculated AUC value to the following formula. BA (%)=(AUC p.o./AUC i.v.)×(Dose i.v./Dose p.o.)×100

[3] = system: MV-4-11; assay: Cell growth inhibition (MTS), MV-4-11; assay type: cell-based; settings: Homo sapiens, MV4-11, 72 h, incubation three days
Method: as §1

[4] = biological target: FLT3 ITD (Homo sapiens, UniProt P36888, ITD); assay: LanthaScreen kinase binding assay, FLT3 ITD
Chain of FLT3 ITD (P36888 whole entry, looked up, change not shown): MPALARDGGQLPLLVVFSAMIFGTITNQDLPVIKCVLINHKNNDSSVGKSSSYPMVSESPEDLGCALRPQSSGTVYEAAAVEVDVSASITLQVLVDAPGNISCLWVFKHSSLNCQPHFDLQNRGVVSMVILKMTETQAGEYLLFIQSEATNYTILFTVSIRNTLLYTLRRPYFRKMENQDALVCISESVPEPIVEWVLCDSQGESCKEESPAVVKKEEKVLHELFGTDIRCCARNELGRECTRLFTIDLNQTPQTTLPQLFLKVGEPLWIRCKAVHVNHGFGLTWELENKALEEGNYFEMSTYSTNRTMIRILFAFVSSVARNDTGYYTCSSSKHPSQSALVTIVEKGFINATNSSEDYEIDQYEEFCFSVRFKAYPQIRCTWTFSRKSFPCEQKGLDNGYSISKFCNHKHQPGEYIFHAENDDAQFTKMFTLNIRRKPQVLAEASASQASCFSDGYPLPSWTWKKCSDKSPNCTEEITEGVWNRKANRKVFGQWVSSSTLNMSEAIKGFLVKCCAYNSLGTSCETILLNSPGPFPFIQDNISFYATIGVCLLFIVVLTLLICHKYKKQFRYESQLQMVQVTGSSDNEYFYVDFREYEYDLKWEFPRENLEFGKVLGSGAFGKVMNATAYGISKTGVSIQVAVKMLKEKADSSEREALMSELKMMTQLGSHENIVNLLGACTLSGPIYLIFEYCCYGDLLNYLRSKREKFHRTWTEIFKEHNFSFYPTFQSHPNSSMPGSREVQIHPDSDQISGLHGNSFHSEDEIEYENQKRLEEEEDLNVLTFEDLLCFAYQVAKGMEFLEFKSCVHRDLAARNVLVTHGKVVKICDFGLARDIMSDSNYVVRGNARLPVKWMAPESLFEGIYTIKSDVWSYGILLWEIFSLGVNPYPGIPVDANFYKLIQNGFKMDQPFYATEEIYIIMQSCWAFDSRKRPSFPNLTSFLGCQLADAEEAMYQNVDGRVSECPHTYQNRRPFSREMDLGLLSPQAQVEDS
Method: (§2) The inhibitory activity of some of the compounds described above against FLT3-ITD, FLT3 wild type (WT), VEGFR2 (KDR), and SYK kinase was measured.
(§3) This experiment was carried out on a 384-well plate in conditions including 50 mM HEPES pH 7.5, 0.01% BRIJ-35, 10 mM MgCl2, 1 mM EGTA, and 1% DMSO.

[5] = biological target: FLT3 WT (Homo sapiens (Human), UniProt P36888); assay: LanthaScreen kinase binding assay, FLT3 WT; settings: kinase tracer-236, 50 nM to 0.05 nM
Chain of FLT3 WT (P36888 27-993): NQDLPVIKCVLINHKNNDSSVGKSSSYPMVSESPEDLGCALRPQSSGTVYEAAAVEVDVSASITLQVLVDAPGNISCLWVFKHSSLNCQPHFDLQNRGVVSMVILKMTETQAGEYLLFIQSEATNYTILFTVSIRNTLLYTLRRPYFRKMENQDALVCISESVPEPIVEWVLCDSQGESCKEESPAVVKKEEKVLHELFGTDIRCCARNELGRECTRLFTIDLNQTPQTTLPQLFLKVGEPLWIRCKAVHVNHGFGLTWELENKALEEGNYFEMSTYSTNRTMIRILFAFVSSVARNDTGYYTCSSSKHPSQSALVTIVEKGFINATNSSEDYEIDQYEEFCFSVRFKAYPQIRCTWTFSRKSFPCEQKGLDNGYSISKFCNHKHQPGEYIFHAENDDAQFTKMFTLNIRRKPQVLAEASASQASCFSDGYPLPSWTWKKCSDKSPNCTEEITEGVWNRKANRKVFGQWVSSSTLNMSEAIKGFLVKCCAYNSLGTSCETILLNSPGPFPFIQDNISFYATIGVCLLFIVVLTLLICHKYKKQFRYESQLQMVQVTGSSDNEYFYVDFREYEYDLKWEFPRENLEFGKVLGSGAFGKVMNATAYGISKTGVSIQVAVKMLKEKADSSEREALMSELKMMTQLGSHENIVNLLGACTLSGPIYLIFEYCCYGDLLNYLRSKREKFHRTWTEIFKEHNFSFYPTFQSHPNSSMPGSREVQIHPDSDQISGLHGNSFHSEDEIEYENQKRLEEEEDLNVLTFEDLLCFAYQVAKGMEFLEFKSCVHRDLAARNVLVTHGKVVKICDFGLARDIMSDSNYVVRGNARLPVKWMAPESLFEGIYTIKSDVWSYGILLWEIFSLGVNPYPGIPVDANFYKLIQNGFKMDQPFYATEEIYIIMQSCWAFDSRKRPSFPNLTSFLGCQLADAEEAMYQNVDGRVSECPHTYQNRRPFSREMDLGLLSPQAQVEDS
Method: as §2, §3

C[C@@H]1CN(Cc2cc(Nc3ncc(Cl)c(-c4c[nH]c5ccccc45)n3)cc(C3CC3)c2)C[C@H](C)N1CCO [Example 4, 2-((2R,6S)-4-(3-((5-chloro-4-(1H-indole-3-yl)pyrimidine-2-yl)amino)-5-cyclopropylbenzyl)-2,6-dimethylpiperazine-1-yl)ethane-1-ol]
GI50 [1]: 0.7 nM
AUC [2]: 184 ng·h/mL
bioavailability [2]: 7.4%
GI50 [3]: 1.7 nM
IC50 [4]: 3.6 nM

C[C@@H]1CN(Cc2cc(Nc3ncc(Cl)c(-c4c[nH]c5cc(Cl)ccc45)n3)cc(C3CC3)c2)C[C@H](C)N1 [Example 2, 5-chloro-4-(6-chloro-1H-indole-3-yl)-N-(3-cyclopropyl-5-(((3R,5S)-3,5-dimethylpiperazine-1-yl)methyl)phenyl)pyrimidine-2-amine]
GI50 [1]: 6.2 nM
IC50 [5]: 1.9 nM
GI50 [3]: 3.5 nM
IC50 [4]: 1.5 nM

Cc1ccc2c(-c3nc(Nc4cc(CN5C[C@@H](C)N[C@@H](C)C5)cc(C5CC5)c4)ncc3F)c[nH]c2c1 [Example 12, N-(3-cyclopropyl-5-(((3R,5S)-3,5-dimethylpiperazine-1-yl)methyl)phenyl)-5-fluoro-4-(6-methyl-1H-indole-3-yl)pyrimidine-2-amine]
GI50 [1]: 21 nM
IC50 [5]: 1.2 nM
GI50 [3]: 11 nM
IC50 [4]: 2.5 nM

C[C@@H]1CN(Cc2cc(Nc3ncc(Cl)c(-c4c[nH]c5cc(CO)ccc45)n3)cc(C3CC3)c2)C[C@H](C)N1 [Example 16, (3-(5-chloro-2-((3-cyclopropyl-5-(((3R,5S)-3,5-dimethylpiperazine-1-yl)methyl)phenyl)amino)pyrimidine-4-yl)-1H-indole-6-yl)methanol]
IC50 [5]: 0.4 nM
IC50 [4]: 0.5 nM

Cc1ccc2c(-c3nc(Nc4cc(CN5C[C@H](CO)N[C@H](C)C5)cc(C5CC5)c4)ncc3Cl)c[nH]c2c1 [Example 26, ((2R,6R)-4-(3-((5-chloro-4-(6-methyl-1H-indole-3-yl)pyrimidine-2-yl)amino)-5-cyclopropylbenzyl)-6-methylpiperazine-2-yl)methanol]
GI50 [1]: 6.1 nM
IC50 [5]: 1.5 nM
GI50 [3]: 22 nM
IC50 [4]: 2.3 nM

Cc1ccc2c(-c3nc(Nc4cc(CN5C[C@@H](C)NC(C)(C)C5)cc(C5CC5)c4)ncc3Cl)c[nH]c2c1 [Example 25, (R)-5-chloro-N-(3-cyclopropyl-5-((3,3,5-trimethylpiperazine-1-yl)methyl)phenyl)-4-(6-methyl-1H-indole-3-yl)pyrimidine-2-amine]
GI50 [1]: 8.5 nM
IC50 [5]: 2.3 nM
AUC [2]: 21800 ng·h/mL
bioavailability [2]: 21.2%
GI50 [3]: 9.3 nM
IC50 [4]: 20 nM

Cc1cc2[nH]cc(-c3nc(Nc4cc(CN5C[C@@H](C)N[C@@H](C)C5)cc(C5CC5)c4)ncc3Cl)c2cc1O [Example 18, 3-(5-chloro-2-((3-cyclopropyl-5-(((3R,5S)-3,5-dimethylpiperazine-1-yl)methyl)phenyl)amino)pyrimidine-4-yl)-6-methyl-1H-indole-5-ol]
IC50 [5]: 3.7 nM
IC50 [4]: 13 nM

Cc1ccc2c(-c3nc(Nc4cc(C5CC5)cc(CN5C[C@@H](C)N[C@@H](C)C5)c4O)ncc3Cl)c[nH]c2c1 [Example 23, 2-((5-chloro-4-(6-methyl-1H-indole-3-yl)pyrimidine-2-yl)amino)-4-cyclopropyl-6-(((3R,5S)-3,5-dimethylpiperazine-1-yl)methyl)phenol]
IC50 [5]: 0.4 nM
IC50 [4]: > 50 nM

COc1cc2c(-c3nc(Nc4cc(CN5C[C@@H](C)N[C@@H](C)C5)cc(C5CC5)c4)ncc3Cl)c[nH]c2cc1C [Example 17, 5-chloro-N-(3-cyclopropyl-5-(((3R,5S)-3,5-dimethylpiperazine-1-yl)methyl)phenyl)-4-(5-methoxy-6-methyl-1H-indole-3-yl)pyrimidine-2-amine]
IC50 [5]: 9.5 nM
IC50 [4]: > 50 nM
